Experimental findings from ChEMBL document CHEMBL1126227, “The synthesis and reactivity of ,-acetylenic and allenic sulfoxides and sulfones of dehydroepiandrosterone and their reactions with 1-butanethiol and glucose-6-phosphate dehydrogenase” (Bioorg Med Chem Lett, 1992) are described below.

Glucose-6-phosphate dehydrogenase (Bos taurus), sequence (Q5EM56 as listed by the source): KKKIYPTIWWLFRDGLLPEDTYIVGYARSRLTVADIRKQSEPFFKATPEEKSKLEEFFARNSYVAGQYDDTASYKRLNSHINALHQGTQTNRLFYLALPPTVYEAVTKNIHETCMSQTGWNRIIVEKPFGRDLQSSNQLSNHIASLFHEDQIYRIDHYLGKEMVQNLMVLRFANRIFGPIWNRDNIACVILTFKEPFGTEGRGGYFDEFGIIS

The assay has as its target Glucose-6-phosphate dehydrogenase (Bos taurus) (UniProt Q5EM56). The assay is described as follows: Percent inhibition against bovine adrenal G6PDH (glucose-6-phosphate dehydrogenase) at a concentration of 10 e-5 M.
As a reminder, the inhibition is the percentage by which the read-out fell short of the control. A high value points to a response far below the control. For `C#CCS[C@H]1CC[C@@]2(C)C(=CCC3C2CC[C@]2(C)C(=O)CCC32)C1` (stereo not given in full), the inhibition is 47%.
In the case of `C=C=C[S+]([O-])[C@H]1CC[C@@]2(C)C(=CCC3C2CC[C@]2(C)C(=O)CCC32)C1` (stereo not given in full), the inhibition is under 5%.
`C=C=CS(=O)(=O)[C@H]1CC[C@@]2(C)C(=CCC3C2CC[C@]2(C)C(=O)CCC32)C1` (stereo not given in full) came in with an inhibition of 15%.
To `C#CCS(=O)(=O)[C@H]1CC[C@@]2(C)C(=CCC3C2CC[C@]2(C)C(=O)CCC32)C1` (stereo not given in full) belongs 20%.
In turn, `C#CC[S+]([O-])[C@H]1CC[C@@]2(C)C(=CCC3C2CC[C@]2(C)C(=O)CCC32)C1` (stereo not given in full) showed an inhibition of under 5%.
